Like-named read-outs stand apart in the source and are kept apart here.
Legend:
recombinant BRD4 BD1 = biological target: T1, recombinant BRD4 BD1 (Homo sapiens, UniProt O60885); assay: Competitive fluorescence-polarization (FP) binding assay, BRD4 BD1
T1 construct: for recombinant BRD4 BD1 and BRD4 BD2 proteins

recombinant BRD4 BD2 = biological target: T2, recombinant BRD4 BD2 (Homo sapiens, UniProt O60885); assay: Competitive fluorescence-polarization (FP) binding assay, BRD4 BD2
T2 construct: for recombinant BRD4 BD1 and BRD4 BD2 proteins

RS4;11 = assay: Cell growth inhibition, 4-day proliferation assay, RS4;11; type: cell-based; conditions: Homo sapiens
Experimental: The effect of representative Compounds of the Disclosure on cell viability was determined in a 4-day proliferation assay. Cells were maintained in the appropriate culture medium with 100/0 FBS at 37° C. and an atmosphere of 5% CO2. All the cell lines were used within three months of thawing fresh vials.
In general, cells were seeded in 96-well flat bottom (Corning COSTAR, Corning, N.Y., cat #3595) or white opaque cell culture plates (BD Falcon, cat #353296) at a density of 3,000-10,000 cells/well in 75 μl of culture medium. Compounds were serially diluted in the appropriate medium, and 75 μl of the diluted compounds were added to the appropriate wells of the cell plate. After the addition of compounds, the cells were incubated at 37° C. in an atmosphere of 5% CO2 for 4 days. Cell viability was determined using the CellTiter-Glo® Luminescent Cell Viability Assay Kit (Promega, Madison, Wis.) for leukemia cells and WST (2-(2-methoxy-4-nitrophenyl)-3-(4-nitrophenyl)-5-(2,4-disulfophenyl)-2H-tetrazolium, monosodium salt) Cell Counting-8 Kit (Dojindo Molecular Technologies, Inc., Rockville, Md.) for adherent cells according to the manufacturers' instructions.
For WST assay (adherent cells), WST-8 reagent was added to each well at a final concentration of 10% (v/v), and then the plates were incubated at 37° C. for 1-2 hours for color development. The absorbance was measured at 450 nm using a SPECTRAmax PLUS plate reader (Molecular Devices, Sunnyvale, Calif.). The readings were normalized to the DMSO-treated cells and the half maximal inhibitory concentration (IC50) was calculated by nonlinear regression (four parameters sigmoid fitted with variable slope, least squares fit, and no constraint) analysis using the GraphPad Prism 5 software (GraphPad Software, La Jolla, Calif.).
For CellTiter-Glo assay (suspension cells), 100 μl of CellTiter-Glo® Reagent was added to each well, and then the plates were incubated at room temperature for 10-20 minutes. The luminescent signal was measured using a Tecan Infinite M1000 multimode microplate reader (Tecan, Morrisville, N.C.). The readings were normalized to the DMSO-treated cells and the IC50 was calculated by nonlinear regression (four parameters sigmoid fitted with variable slope, least squares fit, and no constraint) analysis using the GraphPad Prism 5 software. See US 2014/0256706.
For a number of representative compounds in Table 5, their IC50 values in cell growth inhibition activity in the RS4;11 and MOLM-13 human leukemia cell lines and the MDA-MB-231 breast cancer cell line were evaluated using the WST-8 assay described in EXAMPLE 7, with the data shown in Table 7.

MOLM-13 = assay: Cell growth inhibition, 4-day proliferation assay, MOLM-13; type: cell-based; conditions: Homo sapiens
BRD2 BD1 = BRD2 BD1 (Homo sapiens, UniProt P25440); assay: Competitive FP binding assay, BRD2 BD1; conditions: Table 8, read-out: IC50 (nM) in FP assays BRD2 BD1
BRD2 BD1, sequence (P25440 74-180 limits assumed): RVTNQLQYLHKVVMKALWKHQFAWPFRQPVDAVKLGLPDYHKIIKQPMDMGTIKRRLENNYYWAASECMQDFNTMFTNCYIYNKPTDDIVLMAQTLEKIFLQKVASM
Experimental: (§1) Fluorescence Polarization (FP) competitive binding studies were carried out using a FAM labeled fluorescent probe, see, e.g., Cpd. No. 350 of US 2014/0256706, to determine binding affinities of representative Compounds of the Disclosure for recombinant BRD4 BD1 and BRD4 BD2 proteins. Equilibrium dissociation constants (Kd) values of the fluorescent probe to BRD4 BD1 and BD2 proteins were determined from protein saturation experiments by monitoring the total fluorescence polarization of mixtures composed with the fluorescent probe at a fixed concentration and proteins with increasing concentrations up to full saturation. Serial dilutions of testing proteins were mixed with the fluorescent probe to a final volume of 200 μl in the assay buffer (100 mM phosphate buffer, pH=6.5, 0.01% Triton X-100 (Sigma, 282103) being added right before assays). Final fluorescent probe concentration was 1.5 nM for both proteins. Plates were incubated at room temperature for 30 minutes with gentle shaking to assure equilibrium. FP values in millipolarization units (mP) were measured using the Infinite M-1000 plate reader (Tecan U.S., Research Triangle Park, N.C.) in Microfluor 1 96-well, black, round-bottom plates (Thermo Scientific, Waltham, Mass.) at an excitation wavelength of 485 nm and an emission wavelength of 530 nm. Kd values of the fluorescent probe, which were calculated by fitting the sigmoidal dose-dependent FP increases as a function of protein concentrations using Graphpad Prism 6.0 software (Graphpad Software, San Diego, Calif.), are 5.5 and 3.0 nM to BDR4 BD1 and 2, respectively.
(§2) The IC50 and Ki values of compounds were determined in a competitive binding experiment. See US 2014/0256706. Mixtures of 10 μl of the tested compounds in assay buffer with 40% Ethylene Glycol and 190 μl of preincubated protein/probe complex solution in the assay buffer (100 mM potassium phosphate, pH 6.5, 0.01% Triton X-100) were added into assay plates which were incubated at room temperature for 30 minutes with gentle shaking. Final concentrations of proteins were 10 and 6 nM in assays for BRD4 BD1 and BD2, respectively. Final probe concentration is 1.5 nM in both assays. […] FP values were measured as described above. IC50 values were determined by nonlinear regression fitting of the competition curves. Instead of being calculated from IC50 values as described before. […]
(§3) For several representative compounds in Table 5, their binding affinities to BRD2 BD1 and BD2 proteins, and BRD3 BD1 and BD2 proteins were determined using the Competitive Fluorescence-Polarization (FP) Assays described in Example 6, with the data included in Table 8.

BRD2 BD2 = BRD2 BD2 (Homo sapiens, UniProt P25440); assay: Competitive FP binding assay, BRD2 BD2; conditions: Table 8, read-out: IC50 (nM) in FP assays BRD2 BD2
BRD2 BD2, sequence (P25440 344-453 limits assumed): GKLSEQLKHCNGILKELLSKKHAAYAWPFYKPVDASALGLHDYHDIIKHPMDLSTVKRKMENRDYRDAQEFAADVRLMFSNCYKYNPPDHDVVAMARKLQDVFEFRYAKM
Experimental: as §1, §2, §3

BRD3 BD1 = BRD3 BD1 (Homo sapiens, UniProt Q15059); assay: Competitive FP binding assay, BRD3 BD1; conditions: Table 8, read-out: IC50 (nM) in FP assays BRD3 BD1
BRD3 BD1, sequence (Q15059 34-140 limits assumed): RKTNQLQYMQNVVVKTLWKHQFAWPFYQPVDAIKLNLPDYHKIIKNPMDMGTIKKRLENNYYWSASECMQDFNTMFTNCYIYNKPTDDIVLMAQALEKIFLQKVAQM
Experimental: as §1, §2, §3

BRD3 BD2 = BRD3 BD2 (Homo sapiens, UniProt Q15059); assay: Competitive FP binding assay, BRD3 BD2; conditions: Table 8, read-out: IC50 (nM) in FP assays BRD3 BD2
BRD3 BD2, sequence (Q15059 306-415 limits assumed): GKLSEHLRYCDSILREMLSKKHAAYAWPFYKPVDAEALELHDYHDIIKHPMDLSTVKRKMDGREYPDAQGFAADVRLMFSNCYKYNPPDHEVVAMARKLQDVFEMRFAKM
Experimental: as §1, §2, §3

[1] = Plasma exposure after oral gavage in mice, LC-MS/MS; type: in vivo; conditions: mouse, plasma, mice, oral gavage 25 mg/kg; for concentration at 1 h: read-out: Plasma concentration (ng/mL) 1 h; for concentration at 3 h: read-out: Plasma concentration (ng/mL) 3 h; for concentration at 6 h: read-out: Plasma concentration (ng/mL) 6 h
Experimental: For a number of representative compounds in Table 5, their plasma exposures with oral administration in mice via oral gavage were determined by LC-MS/MS, with the data shown in Table 9.

MDA-MB-231 = assay: Cell growth inhibition, 4-day proliferation assay, MDA-MB-231; type: cell-based; conditions: Homo sapiens
In short: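 WST-8 colorimetric read-out (absorbance 450 nm after 1-2 h) after 4-day compound exposure of 3,000-10,000 cells/well at 37 °C; IC50 from variable-slope sigmoid fit of DMSO-normalized signal.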

[2] = competitive FP, Table 6, read-out: IC50 as determinined in FP assays BRD4 BD1
[3] = competitive FP, Table 6, read-out: IC50 as determinined in FP assays BRD4 BD2
[4] = RS4-11, WST-8 assay, Table 7, read-out: Cell growth inhibition (IC50 (nM)) RS4;11
[5] = MOLM-13, WST-8 assay, Table 7, read-out: Cell growth inhibition (IC50 (nM)) MOLM-13
[6] = RS4-11, 96 h, read-out: Cell IC50 (nM) RS4;11
[7] = MDA-MB-231, WST-8 assay, Table 7, read-out: Cell growth inhibition (IC50 (nM)) MDA-MB-231

Row | SMILES | IC50 (recombinant BRD4 BD1; [2]) [nM] | IC50 (recombinant BRD4 BD2; [3]) [nM] | IC50 (RS4;11; [4]) [nM] | IC50 (MOLM-13; [5]) [nM] | IC50 (BRD2 BD1) [nM] | IC50 (BRD2 BD2) [nM] | IC50 (BRD3 BD1) [nM] | IC50 (BRD3 BD2) [nM] | concentration at 1 h [1] [ng/mL] | concentration at 3 h [1] [ng/mL] | concentration at 6 h [1] [ng/mL] | IC50 (recombinant BRD4 BD1) [nM] | IC50 (recombinant BRD4 BD2) [nM] | IC50 (RS4;11; [6]) [nM] | IC50 (MOLM-13; MOLM-13, 96 h, read-out: Cell IC50 (nM) MOLM13) [nM] | IC50 (MDA-MB-231; MDA-MB-231, 96 h, read-out: Cell IC50 (nM) MDA-MB-231) [nM] | IC50 (MDA-MB-231; [7]) [nM]
1 | Cc1c(C#CC2CCOCC2)sc2c1C(c1ccc(Cl)cc1)=N[C@@H](CC(=O)N1CC(C)(O)C1)c1nnc(C)n1-2 [Compound 158, (S)-2-(4-(4-chlorophenyl)-3,9-dimethyl-2-((tetrahydro-2H-pyran-4-yl)ethynyl)-6H-thieno[3,2-f][1,2,4]triazolo[4,3-a][1,4]diazepin-6-yl)-1-(3-hydroxy-3-methylazetidin-1-yl)ethan-1-one] | 48.3 | 69.1 | 43 | 24.5 | 40.2 | 182 | 63.7 | 220 | 3380 | 1810 | 946 |  |  |  |  |  | 
2 | Cc1c(C#Cc2cnn(C)c2)sc2c1C(c1ccc(Cl)cc1)=NCc1nnc(C)n1-2 [compound 23, 4-(4-chlorophenyl)-3,9-dimethyl-2-((1-methyl-1H-pyrazol-4-yl)ethynyl)-6H-thieno[3,2-f][1,2,4]triazolo[4,3-a][1,4]diazepine] |  |  |  |  |  |  |  |  |  |  |  | 14.3 | 63.1 | > 100 | > 100 |  | 
3 | Cc1c(C#Cc2ccc3[nH]ncc3c2)sc2c1C(c1ccc(Cl)cc1)=NCc1nnc(C)n1-2 [compound 41, 2-((1H-indazol-5-yl)ethynyl)-4-(4-chlorophenyl)-3,9-dimethyl-6H-thieno[3,2-f][1,2,4]triazolo[4,3-a][1,4]diazepine] |  |  |  |  |  |  |  |  |  |  |  |  |  | 278 |  | 680 | 
4 | Cc1c(C#CC2CCOCC2)sc2c1C(c1ccc(Cl)cc1)=N[C@@H](CC(=O)N1CCC(C)(O)CC1)c1nnc(C)n1-2 [Compound 157, (S)-2-(4-(4-chlorophenyl)-3,9-dimethyl-2-((tetrahydro-2H-pyran-4-yl)ethynyl)-6H-thieno[3,2-f][1,2,4]triazolo[4,3-a][1,4]diazepin-6-yl)-1-(4-hydroxy-4-methylpiperidin-1-yl)ethan-1-one] | 55.2 | 50.3 | 37 | 25.4 | 39.3 | 146 | 85.1 | 120 | 4630 | 3760 | 1190 |  |  |  |  |  | 
5 | Cc1c(C#CC2CCOCC2)sc2c1C(c1ccc(Cl)cc1)=N[C@@H](CC(=O)N1CCC(O)CC1)c1nnc(C)n1-2 [Compound 159, (S)-2-(4-(4-chlorophenyl)-3,9-dimethyl-2-((tetrahydro-2H-pyran-4-yl)ethynyl)-6H-thieno[3,2-f][1,2,4]triazolo[4,3-a][1,4]diazepin-6-yl)-1-(4-hydroxypiperidin-1-yl)ethan-1-one] | 36.2 | 47.6 | 39.5 | 35.4 | 34.4 | 143 | 76.5 | 127 | 3460 | 2120 | 1700 |  |  |  |  |  | 
6 | Cc1c(C#Cc2ccccn2)sc2c1C(c1ccc(Cl)cc1)=N[C@@H](CC(=O)N1CCOCC1)c1nnc(C)n1-2 [Compound 126, (S)-2-(4-(4-chlorophenyl)-3,9-dimethyl-2-(pyridin-2-ylethynyl)-6H-thieno[3,2-f][1,2,4]triazolo[4,3-a][1,4]diazepin-6-yl)-1-morpholinoethan-1-one] | 8.7 | 27.8 |  | 13.5 |  |  |  |  | 2910 | 599 | 473 |  |  |  |  |  | 60.7
7 | Cc1c(C#Cc2ccccn2)sc2c1C(c1ccc(Cl)cc1)=N[C@@H](CC(=O)N1CCN(C)CC1)c1nnc(C)n1-2 [Compound 119, (S)-2-(4-(4-chlorophenyl)-3,9-dimethyl-2-(pyridin-2-ylethynyl)-6H-thieno[3,2-f][1,2,4]triazolo[4,3-a][1,4]diazepin-6-yl)-1-(4-methylpiperazin-1-yl)ethan-1-one] | 6.9 | 140 |  | 20.9 |  |  |  |  | 632 | 370 | 52 |  |  |  |  |  | 38.1

Source: US11046709B2, “Fused 1,4-diazepines as BET bromodomain inhibitors” (THE REGENTS OF THE UNIVERSITY OF MICHIGAN, priority 2017, dated 2021)
